Among the test systems are COLO 205 colon; HOP-92 NSCLC; KM12 colon; LOX IMVI melanoma; OVCAR-4 ovarian; OVCAR-5 ovarian; SF-295 CNS; SK-MEL-2 melanoma; SK-OV-3 ovarian; SW-620 colon.
Experiment in all cases: DTP human tumour cell line panel, 48 h

The structures appear in SMILES notation.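 The compound was tested at five concentrations on cells cultured in 96-well plates, with a 48-hour exposure period. GI50 marks 50% less growth. The concentration for full growth arrest is given as TGI.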

Consider `C=C(C)[C@@H]1CC[C@]2(C)CC[C@]3(C)[C@H](CC[C@@H]4[C@@]5(C)CC[C@H](OC(=O)c6ccccc6)C(C)(C)[C@@H]5CC[C@]43C)[C@@H]12`, for which the TGI with COLO 205 colon, in the test with HOP-92 NSCLC, with KM12 colon, with LOX IMVI melanoma, with OVCAR-4 ovarian and in the test with OVCAR-5 ovarian was over 100 µM throughout. Also, the TGI in the test on SF-295 CNS, in the test on SK-MEL-2 melanoma, in the test with SK-OV-3 ovarian and with SW-620 colon was over 100 µM each time.
For `O=C(N/C(=C\c1ccccc1[N+](=O)[O-])c1nc2ccccc2[nH]1)c1ccccc1`, the TGI in the test with COLO 205 colon, in the test with HOP-92 NSCLC, in the test with KM12 colon, with OVCAR-4 ovarian, in the test on OVCAR-5 ovarian and with SF-295 CNS was over 100 µM in each case. Further, the TGI with SK-MEL-2 melanoma, with SK-OV-3 ovarian and with SW-620 colon was over 100 µM in each case.
On to `CN(C)CCNc1ccc2ncnc3c2c1C(=O)c1ccccc1-3`, for which the TGI is 15.5 µM in the test with COLO 205 colon; 8.43 µM in the test on HOP-92 NSCLC; 4.55 µM in the test with KM12 colon; 10.5 µM in the test with LOX IMVI melanoma; 4.27 µM in the test on OVCAR-4 ovarian; 3.42 µM in the test on OVCAR-5 ovarian. Further, the TGI with SF-295 CNS was 2.88 µM; in the test on SK-MEL-2 melanoma it was 10.8 µM; with SK-OV-3 ovarian, over 72.4 µM; with SW-620 colon, 3.81 µM.
On to `COc1ccc(-c2cc(-c3ccccc3)n(C3OCC(OC(C)=O)C(OC(C)=O)C3OC(C)=O)c(=S)c2C#N)cc1` (stereo not given), for which the TGI in the test with COLO 205 colon is over 100 µM; with HOP-92 NSCLC, 53.6 µM; in the test with KM12 colon, over 100 µM; in the test on LOX IMVI melanoma it was over 100 µM; in the test with OVCAR-4 ovarian, over 100 µM; in the test with OVCAR-5 ovarian, over 100 µM. Further, the TGI with SF-295 CNS, in the test with SK-MEL-2 melanoma, with SK-OV-3 ovarian and with SW-620 colon was over 100 µM in each case.
As to `CC(C)(N)CO[C@H]1C[C@H]2CC[C@@]1(C)C2(C)C`, the TGI in the test with COLO 205 colon is 35.2 µM; in the test on HOP-92 NSCLC, 49.1 µM; in the test on KM12 colon, 34 µM; in the test on LOX IMVI melanoma it was 35.1 µM; in the test on OVCAR-4 ovarian it was 74.5 µM; with OVCAR-5 ovarian, 41.3 µM. Moreover, the TGI is 39.3 µM in the test on SF-295 CNS, 35.3 µM with SK-MEL-2 melanoma, over 100 µM in the test with SK-OV-3 ovarian and 54.4 µM in the test with SW-620 colon.
On to `O=C(CCCn1c(=O)c2sc3ccccc3c2n2nnc(-c3ccccc3)c12)NCCc1cnc[nH]1`, for which the GI50 in the test on COLO 205 colon was 1100 nM; with LOX IMVI melanoma it was 1590 nM; in the test with SK-OV-3 ovarian, 3440 nM. Also, the TGI in the test on COLO 205 colon turned out to be 4.8 µM; in the test with LOX IMVI melanoma, 2.93 µM; in the test on SK-OV-3 ovarian it was 15.7 µM.
In the case of `Cc1nc2ccccc2c(=O)n1-c1n[nH]c2ccccc12`, the total growth inhibition concentration (TGI) in the test with COLO 205 colon, with HOP-92 NSCLC, in the test on KM12 colon, in the test on LOX IMVI melanoma, with OVCAR-4 ovarian and in the test on OVCAR-5 ovarian was over 100 µM throughout. Further, the TGI in the test on SF-295 CNS, in the test with SK-MEL-2 melanoma and with SW-620 colon was over 100 µM throughout.
`Cc1nc(Cl)c(Cl)c(Cl)n1`: the TGI with COLO 205 colon was 1.42 µM; in the test with HOP-92 NSCLC it was 0.849 µM; in the test with KM12 colon, 1 µM; with LOX IMVI melanoma, 0.585 µM; with OVCAR-4 ovarian, 0.097 µM; in the test with OVCAR-5 ovarian, 3.03 µM. In addition, the TGI with SF-295 CNS is 3.58 µM; in the test with SK-MEL-2 melanoma, 2.73 µM; in the test on SK-OV-3 ovarian it was 7.53 µM; in the test with SW-620 colon it was 0.149 µM.
Consider `CN1CCN(c2ccc(-c3ccc4ncc(C#N)c(Nc5ccc(F)c(Cl)c5)c4c3)cc2)CC1`, for which the GI50 was 1920 nM with COLO 205 colon; 3470 nM with HOP-92 NSCLC; 4.47 µM in the test with KM12 colon; 2780 nM with LOX IMVI melanoma; 3180 nM with OVCAR-4 ovarian; 4.74 µM with OVCAR-5 ovarian. Besides, the GI50 in the test with SF-295 CNS was 1820 nM; with SK-MEL-2 melanoma it was 2300 nM; in the test with SK-OV-3 ovarian, 2900 nM; in the test with SW-620 colon, 2810 nM. For the same molecule, the TGI with COLO 205 colon was 4.99 µM; with HOP-92 NSCLC, 28.4 µM; with KM12 colon, 18.4 µM; in the test with LOX IMVI melanoma, 11.5 µM; with OVCAR-4 ovarian, 25.6 µM; with OVCAR-5 ovarian, 25.5 µM. In addition, the TGI with SF-295 CNS stood at 3.61 µM; in the test with SK-MEL-2 melanoma, 6.72 µM; in the test on SK-OV-3 ovarian, 15.1 µM; in the test on SW-620 colon, 14.5 µM.
As for `CCn1nc(C)c2c1C(=O)NC(C)C(=O)N2` (stereo not given), the TGI in the test on COLO 205 colon, with HOP-92 NSCLC, in the test with OVCAR-4 ovarian, in the test with OVCAR-5 ovarian, with SF-295 CNS and in the test with SK-OV-3 ovarian was over 100 µM throughout. The TGI with SW-620 colon is over 100 µM.
Turning to `COc1cc(-c2n/c(=C\c3c(O)[nH]c4ccc(Cl)cc34)cc3c2=Nc2ccccc2-3)cc(OC)c1OC`, the GI50 with COLO 205 colon was 1350 nM; in the test with HOP-92 NSCLC, 1320 nM; in the test on KM12 colon, 1.72 µM; in the test on LOX IMVI melanoma, 501 nM; in the test on OVCAR-4 ovarian it was 423 nM; in the test with OVCAR-5 ovarian, 5.15 µM. In addition, the GI50 in the test with SF-295 CNS was 3310 nM; in the test on SK-MEL-2 melanoma, 2210 nM; in the test on SK-OV-3 ovarian it was 2160 nM; with SW-620 colon, 366 nM. Moreover, the TGI amounted to 3.81 µM with COLO 205 colon; 3.32 µM in the test on HOP-92 NSCLC; 5.61 µM in the test on KM12 colon; 1.89 µM in the test with LOX IMVI melanoma; 1.78 µM in the test with OVCAR-4 ovarian; 16.9 µM in the test on OVCAR-5 ovarian. The TGI with SF-295 CNS came out at 10.2 µM; in the test on SK-MEL-2 melanoma it was 4.9 µM; in the test with SK-OV-3 ovarian, 4.79 µM; with SW-620 colon, 1.6 µM.
Take `Nc1ccc2c(c1)C1=NNC(=O)CC1C2` (stereo not given): the TGI with COLO 205 colon, in the test on HOP-92 NSCLC, in the test with KM12 colon, in the test on LOX IMVI melanoma, with OVCAR-4 ovarian and with OVCAR-5 ovarian was over 100 µM each time. Further, the TGI with SF-295 CNS, in the test on SK-MEL-2 melanoma, in the test on SK-OV-3 ovarian and with SW-620 colon was over 100 µM in each case.
As to `CO[C@H]1[C@@H](O)[C@@H](C)O[C@@H](O[C@H]2CC[C@@]3(C)[C@H](CC[C@@H]4[C@@H]3CC[C@]3(C)[C@@H](C5=CC(=O)OC5)CC[C@]43O)C2)[C@@H]1O`, the TGI came to 0.221 µM with COLO 205 colon; 0.0685 µM in the test with HOP-92 NSCLC; 0.191 µM with KM12 colon; 0.0455 µM in the test on LOX IMVI melanoma; 0.0322 µM in the test with OVCAR-4 ovarian; 0.0932 µM in the test with OVCAR-5 ovarian. Further, the TGI in the test on SF-295 CNS was 0.157 µM; in the test on SK-MEL-2 melanoma, 0.0538 µM; in the test on SK-OV-3 ovarian, 0.0491 µM; in the test on SW-620 colon, 2.51 µM.
Consider `CC1SC(c2ccccc2)N(Nc2c3ccccc3nc3ccccc23)C1=O` (stereo not given), for which the TGI with COLO 205 colon, with KM12 colon, with LOX IMVI melanoma, in the test on OVCAR-4 ovarian, in the test on OVCAR-5 ovarian and with SF-295 CNS was over 100 µM throughout. In addition, the TGI in the test on SK-MEL-2 melanoma, with SK-OV-3 ovarian and in the test with SW-620 colon was over 100 µM each time.

Values taken from PubChem BioAssay (NCI).
